The source of these data is US8410302B2, “Methoxyimino compounds and fungicide composition comprising same” (Kyung Nong Corporation, priority 2007, dated 2013).

Assay [1] deals with Puccinia recondita. Put plainly: Fungicidal activity against wheat leaf rust (WLR) disease, control value. The class given is in vivo. Conditions: for pest or weed control at 2 ppm / pest or weed control at 10 ppm / pest or weed control at 50 ppm / pest or weed control at 100 ppm: read-out: WLR control value (C.V.).
For assay [2], the system named is Phytophthora infestans. Put plainly: whole plant or invertebrate. The class given is in vivo. Conditions: for pest or weed control at 2 ppm / pest or weed control at 10 ppm / pest or weed control at 50 ppm / pest or weed control at 100 ppm: Phytophthora infestans, in Solanum lycopersicum, read-out: TLB control value (C.V.).
Assay [3] concerns Erysiphae graminis. Briefly: Fungicidal activity against barley powdery mildew (BPM) disease, control value. The format is in vivo. The conditions noted are these: for pest or weed control at 2 ppm / pest or weed control at 10 ppm / pest or weed control at 50 ppm / pest or weed control at 100 ppm: 168 h, read-out: BPM control value (C.V.).
Assay [4] relates to Pyricularia oryzae Carvara KA301. Briefly: whole plant or invertebrate. Conditions: for pest or weed control at 2 ppm / pest or weed control at 10 ppm / pest or weed control at 50 ppm / pest or weed control at 100 ppm: Pyricularia oryzae, read-out: RCB control value (C.V.). The format is in vivo.
For assay [5], the system named is Rhizoctonia solani AG-1. Put plainly: Fungicidal activity against rice sheath blight (RSB) disease, control value. The conditions noted are these: for pest or weed control at 2 ppm / pest or weed control at 10 ppm / pest or weed control at 50 ppm / pest or weed control at 100 ppm: Rhizoctonia solani, AG1, in Oryza sativa, read-out: RSB control value (C.V.).
For assay [6], the system named is Botrytis cinerae. Put plainly: Fungicidal activity against cucumber gray mold rot (CGM) disease, control value. The class given is in vivo. The conditions noted are these: for pest or weed control at 100 ppm / pest or weed control at 50 ppm: Botrytis, read-out: CGM control value (C.V.).
The mark [7] stands for this setting: Hordeum vulgare, 2 ppm, barley powdery mildew.
Where [8] appears, read: Hordeum vulgare, 10 ppm, barley powdery mildew.
The mark [9] stands for this setting: Hordeum vulgare, 50 ppm, barley powdery mildew.
Setting [10] is: Hordeum vulgare, 100 ppm, barley powdery mildew.
The mark [11] stands for this setting: 100 ppm, cucumber gray mold rot.

Where two headings read alike, the source gives them in different places.

As to `CNC(=O)/C(=N/OC)c1ccccc1COc1cccc(C=C(Cl)Cl)c1Cl` [Example 44, (E)-2-(2-((2-chloro-3-(2,2-dichlorovinyl)phenoxy)methyl)phenyl)-2-methoxyimino-N-methylacetamide], the pest or weed control at 2 ppm is 100% in assay [1] (2 ppm, wheat leaf rust); 95% in assay [2]; 100% in assay [3] (setting [7]); 100% in assay [4]; 90% in assay [5]. The pest or weed control at 10 ppm is 100% in assay [1] (10 ppm, wheat leaf rust); 100% in assay [2]; 100% in assay [3] (setting [8]); 100% in assay [4]; 100% in assay [5]. The pest or weed control at 50 ppm in assay [1] (50 ppm, wheat leaf rust) was found to be 100%; in assay [2] it was 100%; in assay [3] (setting [9]) it was 100%; in assay [4], 100%; in assay [5] it was 100%. In addition, the pest or weed control at 100 ppm in assay [1] (100 ppm, wheat leaf rust) was 100%; in assay [2], 100%; in assay [3] (setting [10]), 100%; in assay [4] it was 100%; in assay [5] it was 100%; in assay [6] (setting [11]) it was 10%.
Consider `CNC(=O)/C(=N/OC)c1ccccc1COc1cc(Br)ccc1C=C(Cl)Cl` [Example 62, (E)-2-(2-((5-bromo-2-(2,2-dichlorovinyl)phenoxy)methyl)phenyl)-2-methoxyimino-N-methylacetamide], for which the pest or weed control at 2 ppm in assay [1] (Puccinia recondita, 2 ppm) was determined as 100%; in assay [2] it was 99%; in assay [3] (2 ppm), 99%; in assay [4], 90%; in assay [5] it was 93%. Besides, the pest or weed control at 10 ppm in assay [1] (Puccinia recondita, 10 ppm) was found to be 100%; in assay [2], 100%; in assay [3] (10 ppm), 100%; in assay [4], 99%; in assay [5], 100%. The pest or weed control at 50 ppm in assay [1] (Puccinia recondita, 50 ppm) turned out to be 100%; in assay [2], 100%; in assay [3] (50 ppm), 100%; in assay [4], 100%; in assay [5], 100%; in assay [6] (50 ppm), 30%. Further, the pest or weed control at 100 ppm in assay [1] (Puccinia recondita, 100 ppm) was determined as 100%; in assay [2], 100%; in assay [3] (100 ppm), 100%; in assay [4], 100%; in assay [5], 100%; in assay [6] (100 ppm), 85%.
Consider `CO/N=C(/C(=O)OC)c1ccccc1COc1ccc(C=C(Br)Br)cc1Cl` [Example 63, methyl-(E)-2-(2-((4-(2,2-dibromovinyl)-2-chlorophenoxy)methyl)phenyl)-2-methoxyiminoacetate], for which the pest or weed control at 2 ppm in assay [1] (Puccinia recondita, 2 ppm) came out at 100%; in assay [2], 99%; in assay [3] (2 ppm), 100%; in assay [4], 100%; in assay [5] it was 90%. Besides, the pest or weed control at 10 ppm in assay [1] (Puccinia recondita, 10 ppm) is 100%; in assay [2], 100%; in assay [3] (10 ppm), 100%; in assay [4], 100%; in assay [5] it was 100%. Also, the pest or weed control at 50 ppm in assay [1] (Puccinia recondita, 50 ppm) is 100%; in assay [2] it was 100%; in assay [3] (50 ppm) it was 100%; in assay [4] it was 100%; in assay [5] it was 100%; in assay [6] (50 ppm), 20%. The pest or weed control at 100 ppm in assay [1] (Puccinia recondita, 100 ppm) was determined as 100%; in assay [2], 100%; in assay [3] (100 ppm), 100%; in assay [4], 100%; in assay [5], 100%; in assay [6] (100 ppm), 75%.
`CNC(=O)/C(=N/OC)c1ccccc1COc1ccc(C=C(Cl)Cl)cc1C` [Example 42, (E)-2-(2-((4-(2,2-dichlorovinyl)-2-methylphenoxy)methyl)phenyl)-2-methoxyimino-N-methylacetamide]: the pest or weed control at 2 ppm in assay [1] (2 ppm, wheat leaf rust) is 100%; in assay [3] (setting [7]), 100%; in assay [4] it was 100%; in assay [5] it was 100%. In addition, the pest or weed control at 10 ppm in assay [1] (10 ppm, wheat leaf rust) was 100%; in assay [3] (setting [8]), 100%; in assay [4], 100%; in assay [5], 100%. For the same molecule, the pest or weed control at 50 ppm in assay [1] (50 ppm, wheat leaf rust) was 100%; in assay [2] it was 70%; in assay [3] (setting [9]), 100%; in assay [4], 100%; in assay [5], 100%. For the same molecule, the pest or weed control at 100 ppm in assay [1] (100 ppm, wheat leaf rust) stood at 100%; in assay [2] it was 95%; in assay [3] (setting [10]), 100%; in assay [4], 100%; in assay [5], 100%; in assay [6] (setting [11]) it was 0%.
In the case of `CO/C=C(/C(=O)OC)c1ccccc1Oc1cc(Oc2ccccc2C#N)ncn1` [Azoxystrobin, reference compound], the “WLR control value (C.V.)” value in assay [1] (0.4 ppm) stood at 95%; in assay [1] (2 ppm) it was 100%; in assay [1] (10 ppm), 100%; in assay [1] (50 ppm) it was 100%. The “TLB control value (C.V.)” value in assay [2] (0.4 ppm) was 50%; in assay [2] (2 ppm) it was 90%; in assay [2] (10 ppm) it was 98%; in assay [2] (50 ppm), 100%. The “BPM control value (C.V.)” value worked out at 95% in assay [3] (0.4 ppm), 100% in assay [3] (2 ppm), 100% in assay [3] (10 ppm) and 100% in assay [3] (50 ppm). The “RCB control value (C.V.)” value was found to be 30% in assay [4] (0.4 ppm), 90% in assay [4] (2 ppm), 100% in assay [4] (10 ppm) and 100% in assay [4] (50 ppm). Moreover, the “RSB control value (C.V.)” value is on record as 67% in assay [5] (0.4 ppm), 98% in assay [5] (2 ppm), 100% in assay [5] (10 ppm) and 100% in assay [5] (50 ppm). Further, the “CGM control value (C.V.)” value in assay [6] (50 ppm) is 40%.
Consider `CO/N=C(/C(=O)OC)c1ccccc1CON=C(C)c1cccc(C=C(Cl)Cl)c1` [Example 19, methyl-(E)-2-[[[[[2-[3-(2,2-dichlorovinyl)phenyl](1-methyl)methylidene]amino]oxy]methyl]phenyl]-2-methoxyiminoacetate], for which the “WLR control value (C.V.)” value in assay [1] (2 ppm, wheat leaf rust) is reported as 98%; in assay [1] (10 ppm, wheat leaf rust), 100%; in assay [1] (50 ppm, wheat leaf rust) it was 100%; in assay [1] (100 ppm, wheat leaf rust), 100%. Further, the “TLB control value (C.V.)” value in assay [2] (2 ppm, tomato late blight) worked out at 80%; in assay [2] (10 ppm, tomato late blight), 92%; in assay [2] (50 ppm, tomato late blight) it was 100%; in assay [2] (100 ppm, tomato late blight), 100%. The “BPM control value (C.V.)” value in assay [3] (2 ppm, barley powdery mildew) is given as 100%; in assay [3] (10 ppm, barley powdery mildew), 100%; in assay [3] (50 ppm, barley powdery mildew), 100%; in assay [3] (100 ppm, barley powdery mildew) it was 100%. Further, the “RCB control value (C.V.)” value was determined as 98% in assay [4] (2 ppm, rice blast); 100% in assay [4] (10 ppm, rice blast); 100% in assay [4] (50 ppm, rice blast); 100% in assay [4] (100 ppm, rice blast). In addition, the “RSB control value (C.V.)” value in assay [5] (100 ppm, rice sheath blight) came out at 80%. The “CGM control value (C.V.)” value in assay [6] (setting [11]) was 59%.
